Results: ChEMBL document CHEMBL1145852, “Drug rings database with web interface. A tool for identifying alternative chemical rings in lead discovery programs” (J Med Chem, 2003)

Target: T1, Endothelin-1 receptor (Homo sapiens, UniProt P25101)
T1 sequence (P25101 whole entry): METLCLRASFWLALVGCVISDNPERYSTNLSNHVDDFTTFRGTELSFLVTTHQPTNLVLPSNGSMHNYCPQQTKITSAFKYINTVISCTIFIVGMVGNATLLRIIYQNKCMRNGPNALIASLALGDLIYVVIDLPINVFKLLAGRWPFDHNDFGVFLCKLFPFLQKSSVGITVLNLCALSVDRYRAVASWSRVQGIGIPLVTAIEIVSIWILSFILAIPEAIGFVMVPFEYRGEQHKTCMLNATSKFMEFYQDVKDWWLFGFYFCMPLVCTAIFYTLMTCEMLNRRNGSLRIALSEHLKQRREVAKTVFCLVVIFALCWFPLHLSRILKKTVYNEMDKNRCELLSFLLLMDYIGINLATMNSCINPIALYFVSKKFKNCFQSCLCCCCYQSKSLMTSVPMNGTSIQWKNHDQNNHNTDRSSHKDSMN
Experiment: Potency at Endothelin A receptor was determined

Compound	IC50 [nM]
CCCOc1ccc2c(c1)c(-c1ccc3c(c1)OCO3)c(C(=O)O)n2Cc1ccc2c(c1)OCO2	250
COc1cc2c(-c3ccc4c(c3)OCO4)c(C(=O)O)n(Cc3ccc4c(c3)OCO4)c2cc1OC	150
COc1cc2c(-c3ccc4c(c3)OCO4)c(C(=O)O)n(Cc3ccc4nsnc4c3)c2cc1OC	33
CCCOc1ccc2c(c1)c(-c1ccc3c(c1)OCO3)c(C(=O)O)n2Cc1ccc2nsnc2c1	97
CCCOc1ccc2c(c1)c(-c1ccc3c(c1)OCO3)c(C(=O)O)n2Cc1ccc2nonc2c1	2500
